Like-named read-outs stand apart in the source and are kept apart here.
Legend:
[1] = biological target: GDP-bound NRAS wild-type protein (Homo sapiens, UniProt P01111); assay: Binding to NRAS by surface plasmon resonance (SPR), KD and KD ratio to KRAS
Outline: (§1)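 Captured GDP-RAS (~100–300 RU) was exposed to increasing compound concentrations, 75 s per step, in running buffer with 10 µM GDP, 10 mM MgCl2 and 4% DMSO at pH 7.4.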

[2] = biological target: GDP-bound KRAS wild-type protein (Homo sapiens, UniProt P01116); assay: Binding to KRAS by surface plasmon resonance (SPR), dissociation constant KD
Outline: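 Single-cycle kinetics on GDP-loaded biotin-Avi RAS captured to ~100–300 RU; 75 s ascending injections, 100 µL/min, 30°C. HBS pH 7.4 + 10 mM MgCl2/10 µM GDP/4% DMSO. 1:1 fit, KD.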

HRAS wild-type protein = HRAS wild-type protein (Homo sapiens, UniProt P01112); assay: Binding to HRAS by surface plasmon resonance (SPR), KD and KD ratio to KRAS
Outline: as §1

[3] = test system: human lung cancer strain NCI-H441; assay: NCI-H441 cell proliferation inhibitory activity (CellTiter-Glo, 4 days); format: cell-based; settings: read-out: NCl-H441 IC50
Outline: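 Step one: dispense the test compound in serial DMSO dilutions. Step three: add the reagent and measure […].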

[4] = ratio of KD for GDP-bound NRAS wild-type protein to KD for KRAS
[5] = ratio of KD for HRAS wild-type protein to KD for KRAS
[6] = ratio of KD with respect to GDP-bound NRAS wild-type protein to KD with respect to KRAS
[7] = Single Cycle Kinetics, 1:1 binding model
[8] = ratio of KD with respect to HRAS wild-type protein to KD with respect to KRAS
[9] = 50% proliferation inhibitory concentration, four days

GDP-bound KRAS wild-type protein, sequence (P01116 1-188 isoform P01116-2): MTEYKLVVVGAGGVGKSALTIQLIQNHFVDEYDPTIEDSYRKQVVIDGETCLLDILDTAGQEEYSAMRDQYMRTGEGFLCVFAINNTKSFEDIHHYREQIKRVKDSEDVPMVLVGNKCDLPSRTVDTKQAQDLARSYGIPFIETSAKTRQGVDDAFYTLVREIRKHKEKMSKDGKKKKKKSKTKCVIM
HRAS wild-type protein, sequence (P01112 whole entry): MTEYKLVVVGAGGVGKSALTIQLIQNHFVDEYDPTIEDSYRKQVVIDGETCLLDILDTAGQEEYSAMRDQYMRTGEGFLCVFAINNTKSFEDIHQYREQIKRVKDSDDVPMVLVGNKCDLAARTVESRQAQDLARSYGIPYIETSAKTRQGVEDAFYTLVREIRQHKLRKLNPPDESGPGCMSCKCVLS
GDP-bound NRAS wild-type protein, sequence (P01111 whole entry): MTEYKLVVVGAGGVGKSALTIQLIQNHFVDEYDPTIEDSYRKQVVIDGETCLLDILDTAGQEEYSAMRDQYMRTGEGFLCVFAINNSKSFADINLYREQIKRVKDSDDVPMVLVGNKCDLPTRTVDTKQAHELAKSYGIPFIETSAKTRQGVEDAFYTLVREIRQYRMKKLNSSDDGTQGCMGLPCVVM

| SMILES | Kd ([2]; Single Cycle Kinetics) [nM] | IC50 ([3]; NCI-H441 cells, 4 days) [nM] | Kd ([2]; 1:1 binding model) [nM] | Kd [2, 7] [nM] | IC50 [3, 9] [nM] | NRAS /KRAS [1, 4] | HRAS /KRAS (HRAS wild-type protein; [5]) | NRAS /KRAS [1, 6] | HRAS /KRAS (HRAS wild-type protein; [8]) |
| --- | --- | --- | --- | --- | --- | --- | --- | --- | --- |
| CCC[C@H]1C(=O)N[C@@H]([C@@H](C)CC)C(=O)N2CCC[C@H]2C(=O)N(C)[C@H]2C/C=C\CCN(C2=O)[C@@H](Cc2ccc(C(F)F)cc2)C(=O)N(C)CC(=O)N[C@@H](CCc2ccc(Cl)c(Cl)c2)C(=O)N2C[C@H](OC3CCC3)C[C@H]2C(=O)NC2(CC(C)(C)C2)C(=O)N(C)[C@@H](C(CC)CC)C(=O)N(C)[C@H](C(=O)N(C)C)CC(=O)N1C [PP2646] | – | 92.6 | 1.6 | – | – | AA (a compound having 20 or more is denoted as AA) | A (a compound having 10 or more and less than 20 is denoted as A) | – | – |
| CCO[C@@H]1C[C@H]2C(=O)NC3(CCC3)C(=O)N(C)[C@@H](C(CC)CC)C(=O)N(C)[C@H](C(=O)N3CCCC3)CC(=O)N(C)[C@@H](C)C(=O)N[C@@H]([C@@H](C)CC)C(=O)N(C)CC(=O)N(C)[C@H]3C/C=C\CCN(C3=O)[C@@H](CC3CCC(F)(F)CC3)C(=O)N(C)CC(=O)N[C@@H](CCc3cc(F)c(C(F)(F)F)c(F)c3)C(=O)N2C1 [PP1436] | – | – | – | 0.29 | 47.4 | – | – | AA (a compound having 20 or more is denoted as AA) | A (a compound having 10 or more and less than 20 is denoted as A) |
| CCC(CC)[C@H]1C(=O)N(C)[C@H](C(=O)N(C)C)CC(=O)N(C)[C@@H](COC)C(=O)N[C@@H]([C@@H](C)CC)C(=O)N2CCC[C@H]2C(=O)N(C)[C@H]2C/C=C\CCN(C2=O)[C@@H](Cc2ccc(C(F)(F)F)cc2)C(=O)N(C)CC(=O)N[C@@H](CCc2ccc(Cl)c(Cl)c2)C(=O)N2C[C@H](OC3CCCC3)C[C@H]2C(=O)NC2(CC(C)(C)C2)C(=O)N1C [PP2651] | – | 147 | 1.9 | – | – | AA (a compound having 20 or more is denoted as AA) | A (a compound having 10 or more and less than 20 is denoted as A) | – | – |
| CCO[C@@H]1C[C@H]2C(=O)NC3(CC(C)(C)C3)C(=O)N(C)[C@@H](C3CCCC3)C(=O)N(C)[C@H](C(=O)N(C)CC)CC(=O)N(C)[C@@H]([C@@H](C)OC)C(=O)N[C@@H]([C@@H](C)CC)C(=O)N3CCC[C@H]3C(=O)N(C)[C@H]3C/C=C\CCN(C3=O)[C@@H](Cc3ccc(C(F)(F)F)cc3)C(=O)N(C)CC(=O)N[C@@H](CCc3ccc(C(F)(F)F)c(OC)c3)C(=O)N2C1 [PP3170] | 0.84 | 42.5 | – | – | – | A (a compound having 10 or more and less than 20 is denoted as A) | A (a compound having 10 or more and less than 20 is denoted as A) | – | – |
| CC[C@H](C)[C@@H]1NC(=O)[C@H](COC)N(C)C(=O)C[C@@H](C(=O)N(C)C)N(C)C(=O)[C@H](C2CCCC2)N(C)C(=O)C2(CC(C)(C)C2)NC(=O)[C@@H]2C[C@@H](OC3CCCC3)CN2C(=O)[C@H](CCc2cc(F)c(C(F)(F)F)c(F)c2)NC(=O)CN(C)C(=O)[C@H](CC2CCCCC2)N2CC/C=C\C[C@@H](C2=O)N(C)C(=O)CN(C2CC2)C1=O [PP2630] | – | 190 | 3 | – | – | A (a compound having 10 or more and less than 20 is denoted as A) | B (a compound having 3 or more and less than 10 is denoted as B) | – | – |
| CCC[C@H]1C(=O)N[C@@H]([C@@H](C)CC)C(=O)N(C)CC(=O)N(C)[C@H]2C/C=C\CCN(C2=O)[C@@H](Cc2ccc(C)cc2)C(=O)N(C)CC(=O)N[C@@H](CCc2cc(F)c(C(F)(F)F)c(F)c2)C(=O)N2C[C@H](OCC)C[C@H]2C(=O)NC2(CC(C)(C)C2)C(=O)N(C)[C@@H](CC2CCC2)C(=O)N(C)[C@H](C(=O)N(C)C)CC(=O)N1C [PP2751] | – | 39.3 | 0.85 | – | – | A (a compound having 10 or more and less than 20 is denoted as A) | A (a compound having 10 or more and less than 20 is denoted as A) | – | – |
| CC[C@H](C)[C@@H]1NC(=O)[C@H](CC)N(C)C(=O)C[C@@H](C(=O)N(C)C)N(C)C(=O)[C@H](C2CCCC2)N(C)C(=O)C2(CCC2)NC(=O)[C@@H]2CC(F)(F)CN2C(=O)[C@H](CCc2cc(F)c(C(F)(F)F)c(F)c2)NC(=O)CN(C)C(=O)[C@H](Cc2ccc(C(F)(F)F)cc2)N2CC/C=C\C[C@@H](C2=O)N(C)C(=O)CN(C)C1=O [PP1129] | – | – | – | 0.056 | 10.2 | – | – | A (a compound having 10 or more and less than 20 is denoted as A) | B (a compound having 3 or more and less than 10 is denoted as B) |
| CCO[C@@H]1C[C@H]2C(=O)NC3(CC(C)(C)C3)C(=O)N(C)[C@@H](C3CCCC3)C(=O)N(C)[C@H](C(=O)N3CCCCC3)CC(=O)N(C)[C@@H](COC)C(=O)N[C@@H]([C@@H](C)CC)C(=O)N(C)CC(=O)N(C)[C@H]3C/C=C\CCN(C3=O)[C@@H](Cc3ccc(C(F)(F)F)cc3)C(=O)N(C)CC(=O)N[C@@H](CCc3ccc(Cl)c(Cl)c3)C(=O)N2C1 [PP2670] | – | 25.2 | 0.48 | – | – | AA (a compound having 20 or more is denoted as AA) | A (a compound having 10 or more and less than 20 is denoted as A) | – | – |

More lines, in order of falling IC50 ([3]; NCI-H441 cells, 4 days), values ahead:

| Kd ([2]; Single Cycle Kinetics) [nM] | IC50 ([3]; NCI-H441 cells, 4 days) [nM] | Kd ([2]; 1:1 binding model) [nM] | Kd [2, 7] [nM] | IC50 [3, 9] [nM] | SMILES | NRAS /KRAS [1, 4] | HRAS /KRAS (HRAS wild-type protein; [5]) | NRAS /KRAS [1, 6] | HRAS /KRAS (HRAS wild-type protein; [8]) |
| --- | --- | --- | --- | --- | --- | --- | --- | --- | --- |
| 1.8 | 24.8 | – | – | – | CCO[C@@H]1C[C@H]2C(=O)OC3(CCC3)C(=O)N(C)[C@@H](C3CCCC3)C(=O)N(C)[C@H](C(=O)N(C)C)CC(=O)N(C)[C@@H](CC(C)C)C(=O)N[C@@H]([C@@H](C)CC)C(=O)N(C3CC3)CC(=O)N(C)[C@H]3C/C=C\CCN(C3=O)[C@@H](Cc3ccc(C(F)(F)F)cc3)C(=O)N(C)CC(=O)N[C@@H](CCc3ccc(C(F)(F)F)c(OC)c3)C(=O)N2C1 [PP3363] | A (a compound having 10 or more and less than 20 is denoted as A) | B (a compound having 3 or more and less than 10 is denoted as B) | – | – |
| 0.82 | 22.7 | – | – | – | CCC[C@H]1C(=O)N[C@@H]([C@@H](C)CC)C(=O)N2CCCC[C@H]2C(=O)N(C)[C@H]2C/C=C\CCN(C2=O)[C@@H](Cc2ccc(C(F)(F)F)cc2)C(=O)N(C)CC(=O)N[C@@H](CCc2cc(F)c(C(F)(F)F)c(F)c2)C(=O)N2C[C@H](OCC)C[C@H]2C(=O)N(C)C2(CCC2)C(=O)N(C)[C@@H](C2CCCC2)C(=O)N(C)[C@H](C(=O)N(C)C)CC(=O)N1C [PP3271] | A (a compound having 10 or more and less than 20 is denoted as A) | B (a compound having 3 or more and less than 10 is denoted as B) | – | – |
| 0.076 | 15.9 | – | – | – | CCO[C@@H]1C[C@H]2C(=O)NC3(CC(C)(C)C3)C(=O)N(C)[C@@H](C3CCCC3)C(=O)N(C)[C@H](C(=O)N(C)C)CC(=O)N(C)[C@@H]([C@H](C)OC)C(=O)N[C@@H]([C@@H](C)CC)C(=O)N(C)CC(=O)N(C)[C@H]3C/C=C\CCN(C3=O)[C@@H](Cc3ccc(C(F)(F)F)cc3)C(=O)N(C)CC(=O)N[C@@H](CCc3ccc(C(F)(F)F)c(Cl)c3)C(=O)N2C1 [PP3171] | A (a compound having 10 or more and less than 20 is denoted as A) | A (a compound having 10 or more and less than 20 is denoted as A) | – | – |
| 0.53 | 13.5 | – | – | – | CCC[C@H]1C(=O)N[C@@H]([C@@H](C)CC)C(=O)N(C2CC2)CC(=O)N(C)[C@H]2C/C=C\CCN(C2=O)[C@@H](Cc2ccc(C(F)(F)F)cc2)C(=O)N(C)CC(=O)N[C@@H](CCc2cc(F)c(C(F)(F)F)c(F)c2)C(=O)N2C[C@H](OCC)C[C@H]2C(=O)NC2(CCCC2)C(=O)N(C)[C@@H](C2CCCC2)C(=O)N(C)[C@H](C(=O)N(C)C)CC(=O)N1C [PP3473] | AA (a compound having 20 or more is denoted as AA) | B (a compound having 3 or more and less than 10 is denoted as B) | – | – |
| 0.24 | 9.5 | – | – | – | CCO[C@@H]1C[C@H]2C(=O)OC3(CCC3)C(=O)N(C)[C@@H](C3CCCC3)C(=O)N(C)[C@H](C(=O)N(C)C)CC(=O)N(C)[C@@H]([C@H](C)OC)C(=O)N[C@@H]([C@@H](C)CC)C(=O)N(C)CC(=O)N(C)[C@H]3C/C=C\CCN(C3=O)[C@@H](Cc3ccc(C(F)(F)F)cc3)C(=O)N(C)CC(=O)N[C@@H](CCc3ccc(C(F)(F)F)c(OC)c3)C(=O)N2C1 [PP3379] | A (a compound having 10 or more and less than 20 is denoted as A) | B (a compound having 3 or more and less than 10 is denoted as B) | – | – |
| 0.14 | 6.8 | – | – | – | CCC[C@H]1C(=O)N[C@@H]([C@@H](C)CC)C(=O)N(C)CC(=O)N(C)[C@H]2C/C=C\CCN(C2=O)[C@@H](Cc2ccc(C(F)(F)F)cc2)C(=O)N(C)CC(=O)N[C@@H](CCc2ccc(C(F)(F)F)c(OC)c2)C(=O)N2C[C@H](OCC)C[C@H]2C(=O)OC2(CCC2)C(=O)N(C)[C@@H](C2CCCC2)C(=O)N(C)[C@H](C(=O)N(C)C)CC(=O)N1C [PP3370] | A (a compound having 10 or more and less than 20 is denoted as A) | B (a compound having 3 or more and less than 10 is denoted as B) | – | – |
| 0.088 | 2.9 | – | – | – | C#CC[C@H]1C(=O)N[C@@H]([C@@H](C)CC)C(=O)N2CCC[C@H]2C(=O)N(C)[C@H]2C/C=C\CCN(C2=O)[C@@H](Cc2ccc(C(F)(F)F)cc2)C(=O)N(C)CC(=O)N[C@@H](CCc2cc(F)c(C(F)(F)F)c(F)c2)C(=O)N2C[C@H](OCC)C[C@H]2C(=O)N(C)C2(CCC2)C(=O)N(C)[C@@H](C2CCCC2)C(=O)N(C)[C@H](C(=O)N(C)C)CC(=O)N1C [PP3253] | A (a compound having 10 or more and less than 20 is denoted as A) | B (a compound having 3 or more and less than 10 is denoted as B) | – | – |
